{"source": "paper PMC11851430", "about": "“Workflow for E3 Ligase Ligand Validation for PROTAC Development” (ACS Chemical Biology, 2025)", "key": {"PHKG2A": {"target": "T1, PHKG2A (Homo sapiens, UniProt P15735)", "T1 construct": "purchased in-house DSF panel (SGC-style construct names; the trailing A/B is a construct suffix)", "T1 sequence (P15735 6-293)": "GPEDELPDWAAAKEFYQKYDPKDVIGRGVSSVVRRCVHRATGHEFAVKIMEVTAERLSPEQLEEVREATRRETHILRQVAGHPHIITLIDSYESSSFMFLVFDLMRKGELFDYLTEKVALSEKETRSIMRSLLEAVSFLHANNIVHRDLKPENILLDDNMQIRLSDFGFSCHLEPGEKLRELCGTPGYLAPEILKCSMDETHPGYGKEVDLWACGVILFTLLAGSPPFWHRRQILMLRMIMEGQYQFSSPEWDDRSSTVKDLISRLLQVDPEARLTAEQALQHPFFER", "test": "DSF assay", "format": "binding", "conditions": "20 µM compound"}, "RIOK2A": {"target": "T2, RIOK2A (Homo sapiens, UniProt Q9BVS4)", "T2 construct": "purchased in-house DSF panel (SGC-style construct names; the trailing A/B is a construct suffix)", "T2 sequence (Q9BVS4 whole entry)": "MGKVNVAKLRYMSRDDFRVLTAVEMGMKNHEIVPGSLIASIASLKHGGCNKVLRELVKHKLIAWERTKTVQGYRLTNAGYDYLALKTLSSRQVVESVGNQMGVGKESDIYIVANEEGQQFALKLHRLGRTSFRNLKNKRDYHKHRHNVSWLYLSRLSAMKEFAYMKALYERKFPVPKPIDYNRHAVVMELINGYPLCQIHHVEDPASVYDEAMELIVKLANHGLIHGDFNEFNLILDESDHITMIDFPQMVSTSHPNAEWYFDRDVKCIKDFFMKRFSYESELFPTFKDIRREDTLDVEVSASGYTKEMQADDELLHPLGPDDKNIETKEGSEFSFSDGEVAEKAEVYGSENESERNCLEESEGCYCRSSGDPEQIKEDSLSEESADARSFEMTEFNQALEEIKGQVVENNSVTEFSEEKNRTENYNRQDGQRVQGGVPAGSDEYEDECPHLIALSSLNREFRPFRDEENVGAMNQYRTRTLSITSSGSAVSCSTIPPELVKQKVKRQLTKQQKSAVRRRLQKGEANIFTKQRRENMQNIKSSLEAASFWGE", "test": "DSF assay", "format": "binding", "conditions": "20 µM compound"}, "TAF1A": {"system": "TAF1A", "test": "DSF assay", "format": "binding", "conditions": "20 µM compound"}, "RPS6KA6A": {"system": "RPS6KA6A", "test": "DSF assay", "format": "binding", "conditions": "20 µM compound"}, "CDKL1A": {"target": "T3, CDKL1A (Homo sapiens, UniProt Q00532)", "T3 construct": "purchased in-house DSF panel (SGC-style construct names; the trailing A/B is a construct suffix)", "T3 sequence (Q00532 1-303)": "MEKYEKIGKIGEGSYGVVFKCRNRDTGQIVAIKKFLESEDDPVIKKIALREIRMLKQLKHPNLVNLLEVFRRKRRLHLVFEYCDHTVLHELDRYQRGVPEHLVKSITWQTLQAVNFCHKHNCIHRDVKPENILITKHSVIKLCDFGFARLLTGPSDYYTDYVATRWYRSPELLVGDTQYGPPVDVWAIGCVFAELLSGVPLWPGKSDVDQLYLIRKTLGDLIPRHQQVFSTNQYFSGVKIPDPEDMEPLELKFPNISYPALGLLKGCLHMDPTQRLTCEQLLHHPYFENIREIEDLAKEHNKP", "test": "DSF assay", "format": "binding", "conditions": "20 µM compound"}, "WNK1A": {"target": "T4, WNK1A (Homo sapiens, UniProt Q9H4A3)", "T4 construct": "purchased in-house DSF panel (SGC-style construct names; the trailing A/B is a construct suffix)", "T4 sequence (Q9H4A3 206-483)": "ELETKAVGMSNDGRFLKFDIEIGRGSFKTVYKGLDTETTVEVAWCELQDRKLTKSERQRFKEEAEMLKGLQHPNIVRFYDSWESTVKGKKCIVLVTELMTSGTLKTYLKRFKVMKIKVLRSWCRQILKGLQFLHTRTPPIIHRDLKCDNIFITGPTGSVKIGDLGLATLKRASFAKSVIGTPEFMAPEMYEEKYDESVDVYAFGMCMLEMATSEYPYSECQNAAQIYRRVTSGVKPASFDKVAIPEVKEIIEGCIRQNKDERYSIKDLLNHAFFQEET", "test": "DSF assay", "format": "binding", "conditions": "20 µM compound"}, "TTK1A": {"target": "T5, TTK1A (Homo sapiens, UniProt P33981)", "T5 construct": "purchased in-house DSF panel (SGC-style construct names; the trailing A/B is a construct suffix)", "T5 sequence (P33981 519-808)": "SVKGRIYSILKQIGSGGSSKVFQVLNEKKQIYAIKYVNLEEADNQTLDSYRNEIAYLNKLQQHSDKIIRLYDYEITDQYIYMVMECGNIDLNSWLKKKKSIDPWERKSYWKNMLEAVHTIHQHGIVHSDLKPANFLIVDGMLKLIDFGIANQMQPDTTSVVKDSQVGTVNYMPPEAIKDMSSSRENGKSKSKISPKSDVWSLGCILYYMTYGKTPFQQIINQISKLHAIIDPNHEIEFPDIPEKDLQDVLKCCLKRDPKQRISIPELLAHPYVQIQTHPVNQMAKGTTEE", "test": "DSF assay", "format": "binding", "conditions": "20 µM compound"}, "CLK1": {"target": "T6, CLK1 (Homo sapiens, UniProt P49759)", "T6 construct": "purchased in-house DSF panel (SGC-style construct names; the trailing A/B is a construct suffix)", "T6 sequence (P49759 148-484)": "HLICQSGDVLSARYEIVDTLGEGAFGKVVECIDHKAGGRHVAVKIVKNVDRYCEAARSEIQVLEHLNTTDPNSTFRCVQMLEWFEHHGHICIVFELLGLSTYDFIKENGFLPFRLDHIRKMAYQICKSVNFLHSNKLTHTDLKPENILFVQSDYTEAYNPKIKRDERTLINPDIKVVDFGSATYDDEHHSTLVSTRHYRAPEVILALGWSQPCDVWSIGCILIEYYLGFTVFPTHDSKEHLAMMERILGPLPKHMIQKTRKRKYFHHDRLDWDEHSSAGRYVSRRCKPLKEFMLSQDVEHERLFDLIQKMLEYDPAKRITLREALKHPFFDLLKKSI", "test": "DSF assay", "format": "binding", "conditions": "20 µM compound"}, "[1]": {"target": "T7, kinase protein levels in MCF-7 cells (Homo sapiens, UniProt A0A0B4J2F0)", "T7 construct": "endogenous in cells; host or cells: MCF-7", "T7 sequence (A0A0B4J2F0 1-54)": "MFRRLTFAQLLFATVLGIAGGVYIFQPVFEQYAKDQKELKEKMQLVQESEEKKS", "test": "TMT-labeled quantitative proteomics", "format": "cell-based", "conditions": "protein PIGBOS1, MCF7, 1 µM"}}}
{"smiles": "CC(C)(C)OC(=O)NCCOCCOCCOCCOCCC(=O)N1CCN(c2cc(Nc3cc(C4CC4)[nH]n3)nc(Nc3ccc(CC#N)cc3)n2)CC1", "note": "[4-L]", "values": [{"measurement": "ΔTm at 20 µM", "setting": "PHKG2A", "value": 8.76, "unit": "°C"}, {"measurement": "ΔTm at 20 µM", "setting": "RIOK2A", "value": 6.13, "unit": "°C"}, {"measurement": "ΔTm", "setting": "TAF1A", "value": -0.59, "unit": "°C"}, {"measurement": "ΔTm", "setting": "RPS6KA6A", "value": 0.07, "unit": "°C"}, {"measurement": "ΔTm at 20 µM", "setting": "CDKL1A", "value": 6.63, "unit": "°C"}, {"measurement": "ΔTm at 20 µM", "setting": "WNK1A", "value": 1.05, "unit": "°C"}, {"measurement": "ΔTm at 20 µM", "setting": "TTK1A", "value": 4.14, "unit": "°C"}, {"measurement": "ΔTm at 20 µM", "setting": "CLK1", "value": 12, "unit": "°C"}]}
{"smiles": "Cc1ncsc1-c1ccc(CNC(=O)[C@@H]2C[C@@H](O)CN2C(=O)[C@@H](NC(=O)CCOCCOCCOCCN2CCN(c3cc(Nc4cc(C5CC5)[nH]n4)nc(Nc4ccc(CC#N)cc4)n3)CC2)C(C)(C)C)cc1", "note": "[4-a]", "values": [{"measurement": "P.Value (compound/DMSO)", "setting": "[1]; set1.1", "value": 0.3761}, {"measurement": "log2FC (compound/DMSO)", "setting": "[1]; set1.1", "value": 0.1046}]}
{"smiles": "CC(C)(C)OC(=O)NCCCOCCOCCOCCCNC(=O)c1cc(Nc2cc(C3CC3)[nH]n2)nc(Nc2ccc(CC#N)cc2)n1", "note": "[5-L]", "values": [{"measurement": "ΔTm at 20 µM", "setting": "PHKG2A", "value": 5.86, "unit": "°C"}, {"measurement": "ΔTm at 20 µM", "setting": "RIOK2A", "value": 5.03, "unit": "°C"}, {"measurement": "ΔTm", "setting": "TAF1A", "value": 0.26, "unit": "°C"}, {"measurement": "ΔTm", "setting": "RPS6KA6A", "value": 0.35, "unit": "°C"}, {"measurement": "ΔTm at 20 µM", "setting": "CDKL1A", "value": 6.41, "unit": "°C"}, {"measurement": "ΔTm at 20 µM", "setting": "WNK1A", "value": 0.56, "unit": "°C"}, {"measurement": "ΔTm at 20 µM", "setting": "TTK1A", "value": 4.18, "unit": "°C"}, {"measurement": "ΔTm at 20 µM", "setting": "CLK1", "value": 13.6, "unit": "°C"}]}
{"smiles": "Cc1ncsc1-c1ccc(CNC(=O)[C@@H]2C[C@@H](O)CN2C(=O)[C@@H](NC(=O)CCOCCOCCNC(=O)c2cc(Nc3cc(C4CC4)[nH]n3)nc(Nc3ccc(CC#N)cc3)n2)C(C)(C)C)cc1", "note": "[5-a]", "values": [{"measurement": "P.Value (compound/DMSO)", "setting": "[1]; set1.1", "value": 0.533}, {"measurement": "log2FC (compound/DMSO)", "setting": "[1]; set1.1", "value": 0.05527}]}
{"smiles": "CC(=O)N[C@H](C(=O)N1C[C@H](O)C[C@H]1C(=O)NCc1ccc(-c2scnc2C)cc1OCCOCCOCCOCCNC(=O)c1cc(Nc2cc(C3CC3)[nH]n2)nc(Nc2ccc(CC#N)cc2)n1)C(C)(C)C", "note": "[5-b]", "values": [{"measurement": "P.Value (compound/DMSO)", "setting": "[1]; set2", "value": 0.8938}, {"measurement": "log2FC (compound/DMSO)", "setting": "[1]; set2", "value": 0.0131}]}
{"smiles": "Cc1ncsc1-c1ccc(CNC(=O)[C@@H]2C[C@@H](O)CN2C(=O)[C@@H](NC(=O)CCOCCOCCOCCOCCN2CCN(c3ccc(Nc4ncc(Cl)c(Nc5ccccc5C(N)=O)n4)cc3)CC2)C(C)(C)C)cc1", "note": "[6-b]", "values": [{"measurement": "P.Value (compound/DMSO)", "setting": "[1]; set1.1", "value": 0.6062}, {"measurement": "log2FC (compound/DMSO)", "setting": "[1]; set1.1", "value": -0.04609}]}
{"smiles": "CC(=O)N[C@H](C(=O)N1C[C@H](O)C[C@H]1C(=O)NCc1ccc(-c2scnc2C)cc1OCCOCCOCCOCCOCCC(=O)N1CCN(c2ccc(Nc3ncc(Cl)c(Nc4ccccc4C(N)=O)n3)cc2)CC1)C(C)(C)C", "note": "[6-e]", "values": [{"measurement": "P.Value (compound/DMSO)", "setting": "[1]; set2", "value": 0.4063}, {"measurement": "log2FC (compound/DMSO)", "setting": "[1]; set2", "value": 0.08613}]}
{"smiles": "CCOC(=O)c1cc(Nc2cc(C3CC3)[nH]n2)nc(Nc2ccc(CC#N)cc2)n1", "note": "[compound 5]", "values": [{"measurement": "ΔTm at 20 µM", "setting": "PHKG2A", "value": 7.46, "unit": "°C"}, {"measurement": "ΔTm at 20 µM", "setting": "RIOK2A", "value": 6.53, "unit": "°C"}, {"measurement": "ΔTm", "setting": "TAF1A", "value": 0.35, "unit": "°C"}, {"measurement": "ΔTm", "setting": "RPS6KA6A", "value": 0.34, "unit": "°C"}, {"measurement": "ΔTm at 20 µM", "setting": "CDKL1A", "value": 6.89, "unit": "°C"}, {"measurement": "ΔTm at 20 µM", "setting": "WNK1A", "value": 0.55, "unit": "°C"}, {"measurement": "ΔTm at 20 µM", "setting": "TTK1A", "value": 4.46, "unit": "°C"}, {"measurement": "ΔTm at 20 µM", "setting": "CLK1", "value": 14.4, "unit": "°C"}]}
